The test system of one data set is vaginal microbiome. More on the design: species or system C57Bl/6 female mice. Conditions: mouse, in vivo, po. An excerpt: (§1) The trillions of organisms forming the microbiome function as an organ system interconnected throughout the body. The possibility that modification of the microbiome in a given physical location may influence the microbiome at other sites in the body (distal augmentation) was investigated. Seven week old C57Bl/6 female mice were acclimatized for 7 days prior to the start of the study by daily handling and shuffling between cages. All mice were housed at three mice per cage in individually vented cages (Thoren, Hazleton, Pa.). At day 0, baseline fresh fecal pellets, and vaginal lavages with 100 μL of sterile double-distilled water were collected and immediately frozen at −80° C. for microbiome analysis. […] Water alone is not expected to influence the microbiome and acted as a negative control. […] The impact of oral vancomycin is therefore expected to be limited to the gastrointestinal tract such that microbiome changes elsewhere in the body (e.g. vagina) would be attributable to distal augmentation. […]
(§2) Isolation and sequencing of microbial DNA from the stool and vaginal samples was performed by DNA Genotek (Ottawa, ON, Canada). The V3-V4 region of the 16S ribosomal subunit was amplified with custom PCR primers and sequenced on an Illumina MiSeq to a minimum acceptable read depth of 25,000 sequences per sample. […]

A further data set has as its system microbiome of the gut. More on the design: species or system C57Bl/6 female mice. Conditions: mouse, in vivo.
Text: as §1, §2

The conditions of data set [1]: in vivo; cited from earlier work.

The values below come from patent US11607432B2, “Probiotic compositions containing clostridiales for inhibiting inflammation” (Evelo Biosciences, Inc., priority 2014, dated 2023).

For `CN[C@H](CC(C)C)C(=O)N[C@H]1C(=O)N[C@@H](CC(N)=O)C(=O)N[C@H]2C(=O)N[C@H]3C(=O)N[C@H](C(=O)N[C@H](C(=O)O)c4cc(O)cc(O)c4-c4cc3ccc4O)[C@H](O)c3ccc(c(Cl)c3)Oc3cc2cc(c3O[C@@H]2O[C@H](CO)[C@@H](O)[C@H](O)[C@H]2O[C@H]2C[C@](C)(N)[C@H](O)[C@H](C)O2)Oc2ccc(cc2Cl)[C@H]1O` [Vancomycin, vancomycin], in the data set with vaginal microbiome, the “day 0 to day 6 pattern in vaginal samples (PCA)” value was “overall difference between the PBS and oral vancomycin groups”. Besides, in the data set on microbiome of the gut, the “impact on the microbiome of the gut (PCA at the family level, fecal samples day 0 to day 6)” value is given as “strong impact”. Moreover, the “absorption from the gut after oral administration” value in data set [1] is “poorly absorbed from the gut”.
